# Article PMC6656724 (Communications Biology, 2019)
# Where two headings read alike, the source gives them in different places.
# Assays:
# Homo sapiens KMO (HsKMO) = molecular target: T1, Homo sapiens KMO (HsKMO) (Homo sapiens, UniProt O15229); experiment: KMO inhibition assay, NADPH oxidation at 340 nm (HsKMO); type: biochemical
# T1 construct: GST; made in house
# From the text: (§1) A combination of ligand- and structural-based virtual screening approaches (see supporting information for details) was used to identify an initial library of >1000 compounds that may be suitable as potential KMO inhibitors. These compounds were screened for inhibition of Pseudomonas fluorescens KMO (PfKMO) and Homo sapiens KMO (HsKMO) using high-throughput assays by monitoring the time-dependent oxidation of NADPH at 340 nm[23].
# (§2) Small-molecule compounds were supplied by Biofocus (Charles River Laboratories International Inc., MA, USA), which were identified in silico as potential inhibitors (further details are described in the Supplementary Methods). Initial inhibition assays were performed against Pseudomonas fluorescens KMO (PfKMO) and Homo sapiens KMO (HsKMO) by monitoring the time-dependent absorbance change of NADPH at 340 nm. Purified KMO protein (200 nM) was incubated in 100 µL reaction buffer (20 mM potassium phosphate pH 8.0, 7 mM 2-mercaptoethanol) containing 100 μM NADPH, 100 μM L-Kyn and 20 μM potential inhibitors in 96-well plates. […] The inhibitors identified in the initial screens were validated and re-assayed individually in a 1 cm path-length quartz micro cuvette. […] Suppliers for target inhibitor compounds are listed in Supplementary Table 11.
# Supplementary Figure 1. Examples of inhibition data used to generate IC50 values for selected KMO inhibitors.
# (§3) NADPH (100µM) were added into reaction buffer (HsKMO: 20mM potassium phosphate pH 8.0, 7 mM 2-mercaptoethanol; PfKMO: 20 mM HEPES, 10mM sodium acetate, pH 7.5, 2mM DTT). The reaction was initiated by the addition of KMO enzyme (HsKMO: 0.5µM; PfKMO: 0.1 µM). KMO activity was measured in the presence of a range of inhibitor concentrations. […]
# (§4) 3.5 Steady-state enzymatic assays.
# (§5) Initial screening assays and determination of IC50 values for each potential inhibitor compound were carried out using either 0.1 µM PfKMO or 0.5 µM HsKMO at fixed […]
# (§6) (HsKMO: 20 mM potassium phosphate pH 8.0, 7 mM 2-mercaptoethanol; PfKMO:
# (§7) 20 mM HEPES, 10 mM sodium acetate, pH 7.5, 2 mM DTT). KMO activity was measured in the presence of a range of inhibitor concentrations by monitoring the […]
# (§8) consumption of NADPH at 340 nm upon addition of enzyme via a Cary 50 UV-Vis spectrophotometer (Agilent Technologies). Rates were determined from linear regression fits to the initial linear portion of the curves. All measurements were performed in triplicate. The IC50 values for inhibitors were obtained by plotting the percentage inhibition versus the inhibitor concentration and fitting to the Morrison equation16 (equation 1) using Origin 9.0 Software (OriginLab, Northampton, MA).
# E + I + K!"" − E + I + K!"" ! − 4[E][I] where v0 is the enzyme activity without inhibitor, vi is the enzyme activity with ligand
# [1] = Mouse brain penetration study; type: in vivo, female C57BL6 mice; conditions: mouse
# Procedure: Inhibitor 1 (and prodrugs 1a, 1b, 1c and 1d) was dosed as a bolus solution intravenously at 1 mg free base/kg (dose volume: 5 mL/kg; dose vehicle: 5% DMSO; 95% saline (inhibitor 1) or 5% DMSO; 40% PEG400; 55% MilliQ H2O (prodrugs 1a, 1b, 1c and 1d)) to female C57BL6 mice (n = 6). At 5 min and 60 min following intravenous bolus injection of test compound, mice (n = 3/timepoint) were placed under terminal anaesthesia with isofluorane. A blood sample was taken by cardiac puncture, the […] decapitated and the brain removed. Brain weight was noted and each brain homogenised with two volumes of methanol (2 mL/g brain). Each blood sample was diluted with distilled water (1:10). Diluted blood and the brain homogenates were then stored frozen until preparation and analysis by UPLC-MS/MS. For each mouse at each timepoint for 1, the concentration in brain (ng/g) was divided by the concentration in blood (ng/mL) to give a brain:blood ratio. The mean value obtained was quoted. For prodrugs 1a to 1d, only the concentration of 1 in blood (ng/mL) and brain (ng/g) was reported.
# A rapid and sensitive ultra-performance chromatography/tandem mass spectrometry (UPLC-MS/MS) method was developed and validated for the determination of inhibitor 1 and prodrug 1b (rat only). Chromatographic analysis was conducted on a Waters Acquity™ UPLC system. Chromatographic separation was performed with an Acquity™ UPLC BEH C18 column (50 × 2.1 mm, 1.7 µm, 130Å; Waters Corp.) maintained at 40 °C in a column oven. The mobile phase consisted of water with 0.01% formic acid and ACN with 0.01 % formic acid and it was delivered at a flow rate of 0.6 mL/min under gradient eluent conditions within an analysis cycle time of 3 min. The mass detection was conducted on a Waters Xevo™ TQs mass spectrometer equipped with a ScanWave™ technology. Quantitation of the analyte was performed in electrospray positive ionisation mode (ESI^+) using multiple reaction monitoring. The optimised fragmentation transition was m/z = 270.17 → 196.19 (mouse) or m/z = 270.17 → 223.76 (rat) for inhibitor 1 and m/z = 297.83 → 195.74 for prodrug 1b (rat).
# Sample extraction for blood and brain homogenate was by protein precipitation (1:3 or 1:6) using ACN containing suitable internal standard. Extracts were vortexed followed by centrifugation (2800 rpm for 10 min). An aliquot of each supernatant was then diluted two-fold in distilled water ready for analysis by UPLC-MS/MS.
# The weighted 1/x^2 calibration line was linear in the dynamic range of 1–5000 ng/mL for inhibitor 1 and 1–1000 ng/mL for prodrug 1b with a correlation coefficient (r^2) > 0.99 (inhibitor 1) or 0.98 (prodrug 1b). The quality control samples (QC) were prepared by using the same spiking scheme as the calibration samples and up to four different target concentration brain levels: 2 ng/mL (LQC), 40 ng/mL (MQC), 100 ng/mL (HQC) and 2000 ng/mL. Data collection, peak integration and calculations were performed using MassLynx software, version 2.1.
# [2] = molecular target: T2, Pseudomonas fluorescens KMO (PfKMO) (Pseudomonas fluorescens, UniProt Q84HF5, C252S/C461S); experiment: biochemical
# T2 construct: made in house; host or cells: E. coli BL21 (DE3)
# From the text: as §1, §2
# as §3, with “Supplementary Figure 1. Examples of inhibition data used to generate IC50 values for selected KMO inhibitors. Fixed concentration of L -KYN (200 µM) and NADPH” for “NADPH”
# as §4, §5, §6, §7
# as §8, with “MA). […]” for “MA).”
# [3] = Stability in mouse hepatic microsomes; conditions: for half-life at 1 µM: mouse, microsomes
# Procedure: 3.6.3 Compound stability in mouse hepatic microsomes and rat hepatocytes
# A microsomal stability assay was performed as described in the BioFocus Standard
# Operating Procedure ADME-SOP-83, using pooled hepatic mouse
# Test and control compounds (midazolam,
# dextromethorphan), were prepared in DMSO and incubated at an initial concentration
# in the presence of the cofactor, NADPH (1 mM). Aliquots were removed at 0, 5, 10,
# 20 and 40 minutes for termination of reactions and compound extraction with ACN
# containing an analytical internal standard. Samples were centrifuged and the
# supernatant fractions analysed for parent compound by mass spectrometry (LC-
# MS/MS). The amount of compound remaining (expressed as %) was determined from
# the MS response in each sample relative to that in the T = 0 samples (normalised for
# internal standard). Ln plots of the % remaining were used to determine the half-life
# the slope of the Ln % remaining vs time curve. The in vitro intrinsic clearance Clint
# PfKMO [4] = molecular target: T3, PfKMO (Pseudomonas fluorescens, UniProt Q84HF5, C252S/C461S); experiment: Stopped-flow reduction of flavin cofactor by NADPH; type: biochemical; conditions: for Reduction rate of flavin cofactor: PfKMO with saturating ligand, 2 mM NADPH, 25 °C, anaerobic; for Stimulation of KMO reduction by NADPH: rapid mixing stopped-flow assays
# T3 construct: made in house; host or cells: E. coli BL21 (DE3)
# Procedure: The reduction rate of the flavin cofactor by NADPH was measured using a stopped-flow spectrophotometer (Applied Photophysics Ltd), which was housed in an anaerobic glovebox (Belle Technology). […] The reduction of the flavin was monitored by the decrease in the absorbance of the flavin at 450 nm and transients were fitted to either double or triple exponentials.
# Supplementary Figure 13. Reduction of flavin cofactor by NADPH in the presence and absence of ligands. Anaerobic mixtures of 10 µM PfKMO with or without ligand were mixed against anaerobic 2 mM NADPH on a stopped-flow spectrophotometer at 25℃. a, 10 µM PfKMO mixed with 2 mM NADPH; b, 10 µM
# PfKMO [5] = molecular target: T3, PfKMO; experiment: biochemical; conditions: for Km: substrates of PfKMO; for Mechanism of inhibition with respect to L-KYN / Mechanism of inhibition with respect to NADPH: PfKMO
# Procedure: saturating concentrations of the L-KYN and NADPH substrates. Data are plotted […]
# as §8
# E + I + K!"" − E + I + K!"" ! − 4[E][I] where v0 is the enzyme activity without inhibitor, vi is the enzyme activity with ligand concentration [I], [E] is the enzyme concentration, [I] is the inhibitor concentration, K!"" is the apparent inhibition constant and IC = K!"" + [!] . If K!"" ≫ [!], IC ≈ […]
# where Ki is the inhibition constant, [S] is the substrate concentration used in the assay and Km is the Michaelis-Menten constant17. […]
# between Ki and Ki apparent values, as the conditions for measuring IC50 are different, Ki values can be used to compare with other reported KMO inhibitors.
# Steady-state kinetic parameters for PfKMO were calculated by measuring initial rates […]
# the observed rate of turnover (v) versus the varied substrate concentration were fitted to equation 2 using Origin 9.0 Software (OriginLab, Northampton, MA).
# A B + K!! B + K!! A + K!!K!! where v is the initial rate of activity, Vmax is the maximum velocitie of the reaction, [A] and [B] are the substrate concentration, K!! and K!! are the Michaelis-Menten constant for different substrate and K!! is the inhibition (binding) constant of substrate A to the free enzyme while forming transitory complexes.18
# Product inhibition studies were carried out by measuring reaction rates at varying […]
# one substrate and varying concentrations of the other substrate. Inhibition studies with target compounds were carried out by measuring reaction rates at varying inhibitor concentrations at saturating concentrations of one substrate and varying concentrations of the other substrate. […]
# were used to distinguish between different types of inhibition. The data were fitted to a straight line defined by the Lineweaver-Burke equation (equation 4), with the y intercept providing 1/Vmax and the x intercept giving -1/Km. […]
# [6] = Kinetic solubility in PBS, pH 7.4 (2% DMSO); type: physicochemical; conditions: PBS with 2% DMSO, pH 7.4, aqueous buffer, kinetic from dmso stock, PBS, pH 7.4 (2% DMSO)
# [7] = 1 mg/kg i.v., 5 min, single mice, analyte inhibitor 1 (also after prodrugs) or 1h
# [8] = Half-life Mean, mouse hepatic microsomes
# [9] = Half-life n=1, mouse hepatic microsomes
# [10] = Half-life n=2, mouse hepatic microsomes
# T1 sequence (O15229 whole entry): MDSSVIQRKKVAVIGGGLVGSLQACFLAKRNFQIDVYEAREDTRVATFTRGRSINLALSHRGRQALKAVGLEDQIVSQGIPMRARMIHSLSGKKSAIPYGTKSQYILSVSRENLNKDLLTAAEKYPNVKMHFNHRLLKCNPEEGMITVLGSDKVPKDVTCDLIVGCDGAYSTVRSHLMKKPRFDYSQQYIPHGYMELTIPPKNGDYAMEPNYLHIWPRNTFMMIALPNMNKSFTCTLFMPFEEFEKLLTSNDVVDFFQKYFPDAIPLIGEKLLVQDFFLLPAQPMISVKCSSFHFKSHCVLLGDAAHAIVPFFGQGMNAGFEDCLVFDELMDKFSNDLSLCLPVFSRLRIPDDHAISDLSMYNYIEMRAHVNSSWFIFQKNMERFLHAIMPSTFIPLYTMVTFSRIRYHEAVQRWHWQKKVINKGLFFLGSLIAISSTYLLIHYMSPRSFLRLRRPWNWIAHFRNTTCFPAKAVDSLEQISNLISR
# T2 sequence (Q84HF5 whole entry C252S/C461S): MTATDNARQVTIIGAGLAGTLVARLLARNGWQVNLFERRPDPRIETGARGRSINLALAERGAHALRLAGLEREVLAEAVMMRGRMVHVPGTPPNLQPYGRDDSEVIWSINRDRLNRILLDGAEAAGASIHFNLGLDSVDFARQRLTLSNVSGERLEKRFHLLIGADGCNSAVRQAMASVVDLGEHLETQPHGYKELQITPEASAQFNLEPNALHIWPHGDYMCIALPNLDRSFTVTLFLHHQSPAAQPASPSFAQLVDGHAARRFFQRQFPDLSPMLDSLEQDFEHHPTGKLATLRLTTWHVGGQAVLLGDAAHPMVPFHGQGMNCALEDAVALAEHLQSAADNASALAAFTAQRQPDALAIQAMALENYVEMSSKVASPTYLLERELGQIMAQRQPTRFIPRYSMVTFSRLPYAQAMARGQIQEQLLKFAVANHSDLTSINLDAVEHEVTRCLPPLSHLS
# T3 sequence (Q84HF5 whole entry C252S/C461S): as above
smiles,measurement,setting,value
Cc1cc2c(c(C)c1Cl)N(CC(=O)OC(C)(C)C)C(=O)CO2 [1d],IC50,Homo sapiens KMO (HsKMO),> 300 µM
same,In blood,[1]; [7],≤ LLoQ
same,In brain,[1]; [7],≤ LLoQ
same,In brain,"[1]; 1 mg/kg i.v., 60 min, single mice, analyte inhibitor 1 (also after prodrugs) or 1h",≤ LLoQ
same,Release of 1 in blood and brain,[1]; prodrug 1 mg/kg i.v. bolus,undetectable
same,IC50,[2],~200 µM
"COc1ccc2c(c1)[C@]13CCCC[C@@H]1[C@H](C2)N(C)CC3 [Dextromethorphan, reference compound]",Mean intrinsic clearance,[3]; mouse hepatic microsomes,97 µL/min/mg microsome protein
same,half-life at 1 µM,[3]; [8],29 min
same,half-life at 1 µM,[3]; [9],28 min
same,half-life at 1 µM,[3]; [10],29 min
"Nc1ccccc1C(=O)C[C@H](N)C(=O)O [L-KYN, reference compound]",Reduction rate of flavin cofactor,PfKMO [4],339 ± 16.6 s⁻¹
same,Km,PfKMO [5],12.1 ± 1.4 µM
"Cc1ncc2n1-c1ccc(Cl)cc1C(c1ccccc1F)=NC2 [Midazolam, reference compound]",Mean intrinsic clearance,[3]; mouse hepatic microsomes,> 554 µL/min/mg microsome protein
same,half-life at 1 µM,[3]; [8],< 5 min
same,half-life at 1 µM,[3]; [9],< 5 min
same,half-life at 1 µM,[3]; [10],< 5 min
"NC(=O)C1=CN([C@@H]2O[C@H](COP(=O)(O)OP(=O)(O)OC[C@H]3O[C@@H](n4cnc5c(N)ncnc54)[C@H](OP(=O)(O)O)[C@@H]3O)[C@@H](O)[C@H]2O)C=CC1 [NADPH, reference compound]",Km,PfKMO [5]; read-out: Km,16.9 ± 1.5 µM
"COC(=O)[C@H]1[C@H]2C[C@@H]3c4[nH]c5cc(OC)ccc5c4CCN3C[C@H]2C[C@@H](OC(=O)c2cc(OC)c(OC)c(OC)c2)[C@@H]1OC [Reserpine, reference compound]",solubility at 2 h,[6]; read-out: Solubility Mean,9 µM
same,solubility at 2 h,[6]; read-out: Solubility n=1,9 µM
same,solubility at 2 h,[6]; read-out: Solubility n=2,9 µM
"Cn1c(C(=O)N[C@@H](C(=O)O)c2ccccc2)cc2cc(Cl)ccc21 [compound 4, (R)-2-(5-chloro-1-methyl-1H-indole-2-carboxamido)-2-phenylacetic acid]",IC50,Homo sapiens KMO (HsKMO),6.1 µM
same,Reduction rate of flavin cofactor,PfKMO [4],0.03 ± 0.005 s⁻¹
same,Stimulation of KMO reduction by NADPH,PfKMO [4],do not stimulate
same,Ki,PfKMO [5],3 ± 0.24 µM
same,Mechanism of inhibition with respect to L-KYN,PfKMO [5],competitive inhibitor
same,Mechanism of inhibition with respect to NADPH,PfKMO [5],mixed type inhibitors
same,IC50,[2],59.8 ± 7.14 µM
"O=C(O)c1ccc(-c2cccc(Cl)c2Cl)o1 [compound 9, 5-(2,3-dichlorophenyl) furan-2-carboxylic acid]",IC50,Homo sapiens KMO (HsKMO),39.6 µM
same,Reduction rate of flavin cofactor,PfKMO [4],0.03 ± 0.001 s⁻¹
same,Stimulation of KMO reduction by NADPH,PfKMO [4],do not stimulate
same,Ki,PfKMO [5],0.15 ± 0.01 µM
same,Mechanism of inhibition with respect to L-KYN,PfKMO [5],competitive inhibitor
same,Mechanism of inhibition with respect to NADPH,PfKMO [5],competitive inhibitor
same,IC50,[2],4.3 ± 0.2 µM
